According to patent publication US20050123604A1, “Pharmaceutical compositions” (priority 2002, published 2005):

Legend:
[1] = blood plasma half life after oral administration; assay type: in vivo; conditions: oral administration of immediate release composition
Source text: The pharmaceutical compositions useful in the practice of the invention are for oral administration and are “immediate release” dosage forms. That is, the pharmaceutical compositions useful in the practice of the invention have neither the pharmacokinetic nor physical characteristics of extended release pharmaceutical dosage forms. Thus, a pharmaceutical composition useful in the practice of the invention, if in solid form, will disintegrate or dissolve rapidly, preferably within one hour of administration, and administration of a pharmaceutical composition useful in the practice of the invention will result in a rapid rise in the blood plasma concentration of 5-methyl-2-(2′-chloro-6′-fluoroanilino)phenylacetic acid. Preferably, the blood plasma concentration of 5-methyl-2-(2′-chloro-6′-fluoroanilino)phenylacetic acid will reach a maximum within two to six hours after oral administration and will then fall rapidly due to the relatively short (3 to 6 hour) half life of 5-methyl-2-(2′-chloro-6′-fluoroanilino)phenylacetic acid.

[2] = chemical stability of drug substance in tablets as a function of residual moisture (LOD); assay type: physicochemical; conditions: LOD kept at about 2.1%-4.5% (200 mg tablets) or about 1.7%-3.5% (400 mg, 65% drug-loaded tablets)
Procedure: That is, certain degradation products of 5-methyl-2-(2′-chloro-6′-fluoroanilino)phenylacetic acid are formed at a greater rate in dryer tablets, which is contrary to the typical behavior of drug substances. In general, moisture, in the form of water, is detrimental to drug stability, and packaging for pharmaceutical formulations frequently contains some form of desiccant material to minimize moisture levels.
Tablets with about 200 mg of active agent preferably have an LOD of 3.5% with a desirable range between about 2.1% and about 4.5%. 65% drug-loaded tablets with about 400 mg of active agent preferably have an LOD of about 2.5%, with a desirable range between about 1.7% and about 3.5%.
The compositions and methods of the invention provide solid pharmaceutical compositions for oral administration comprising 5-methyl-2-(2′-chloro-6′-fluoroanilino)phenylacetic acid with minimal levels of total degradation products Oral dosage levels for 5-methyl-2-(2′-chloro-6′-fluoroanilino)phenylacetic acid are of the order of between about 200 and about 1200 mg per patient per day. In a preferred embodiment, the effective amount is between about 200 and about 800 mg. In a more preferred embodiment, the effective amount is between about 200 and about 600 mg. In an even more preferred embodiment, the effective amount is between about 200 and about 400 mg. […]

half-life [1]: 180 to 360 min
chemical stability of the active agent in tablets [2]: more chemically stable
Structure (SMILES): Cc1ccc(Nc2c(F)cccc2Cl)c(CC(=O)O)c1 [5-methyl-2-(2′-chloro-6′-fluoroanilino)phenylacetic acid]
